The values that follow come from PMC6516726 (ACS Catalysis, 2018).

One test deals with PETNR. The arrangement: method as in earlier work. The conditions noted are these: PETNR−coenzyme analogue complex; cited from earlier work.
The next test has as its target L25I PETNR (Enterobacter cloacae, UniProt P71278, L26I). Conditions: for kobs1 / A2 (amplitude of kobs2 out of total absorbance change) / kobs2: 10 mM NADPH or 25 mM NADH, pH 7.0.
Test [1] has as its target T1, WT PETNR (Enterobacter cloacae, UniProt P71278). Nature of the test: pH dependence of FMN reduction of WT PETNR in MTEN buffer. It is filed as biochemical, Enterobacter Cloacae PB2. The arrangement: made in house. How it is done: (R)-[4-2H]-NADPH at pH 6, pH 7 and pH9 (A) and the corresponding temperature dependencies of the observed primary kinetic isotope effects (B). The measurements were performed in MTEN buffer (50 mM MES, 25 mM Tris, 25 mM ethanola-mine, and 100 mM NaCl), which has a useful buffering capacity and minimal change in ionic strength over the pH range 6-9 in which PETNR is stable; we attempted testing PETNR in pH 5 as well, but the enzyme is unstable at this pH. The observed rate constants of FMN reduction at pH 7 in MTEN buffer are essentially the same to those measured in 50 mM potassium phosphate buffer, pH 7 and similar observation are valid for the KIEs values (Table S3).The rate of FMN reduction is essentially insensitive to pH across the whole temperature range (5-40 °C), and also that KIEs values are essentially not affected by changes in pH (the rate of FMN reduction by (R)-[4-2H]-NADPH is independent of pH as well across all temperatures studied; see Table S3 for extracted thermodynamic parameters). Although these experiments cannot completely exclude any kinetic […]
of H-transfer and protonation (which would lead to pH-dependent rates) which makes it very likely that the observed rate are reporting directly on the H-transfer step.
Table S3. Extracted Thermodynamic Parameters from pH Dependence Studies.
(kJ mol-1) (J mol-1 K-1) (kJ mol-1 K-1)

In test [2] the target is T1, WT PETNR. Put plainly: Stopped-flow FMN reduction (reductive half-reaction, hydride transfer) of WT PETNR by coenzyme. Conditions: for kobs1 / A2 (amplitude of kobs2 out of total absorbance change) / kobs2: 10 mM NADPH or 25 mM NADH, pH 7.0.
The target in a further test is L25A PETNR (Enterobacter cloacae, UniProt P71278, L26A). Conditions: for A2 (amplitude of kobs2 out of total absorbance change) / kobs1 / kobs2: pH 7.0.
Chain of L25A PETNR (P71278 entry or part of it L26A): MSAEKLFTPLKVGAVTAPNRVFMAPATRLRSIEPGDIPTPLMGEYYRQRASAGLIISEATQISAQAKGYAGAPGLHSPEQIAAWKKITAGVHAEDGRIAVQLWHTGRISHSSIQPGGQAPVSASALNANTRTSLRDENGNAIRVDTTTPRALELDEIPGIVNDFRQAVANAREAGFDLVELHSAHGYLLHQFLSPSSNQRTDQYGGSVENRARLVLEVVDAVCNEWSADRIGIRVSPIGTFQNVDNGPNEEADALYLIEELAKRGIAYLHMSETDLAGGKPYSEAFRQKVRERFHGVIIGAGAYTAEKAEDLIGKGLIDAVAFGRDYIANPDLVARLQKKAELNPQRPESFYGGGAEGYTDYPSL
Where [3] appears, read: 25 °C, 50 mM potassium phosphate pH 7.0, 20 μM enzyme.
[4] abbreviates: 25 °C, 50 mM potassium phosphate pH 7.0, 20 μM enzyme, fast phase.
The mark [5] stands for this setting: T0 = 298 K, fit of kobs1 (5–40 °C) to eq 1.
[6] abbreviates: 5 °C, 10 mM NADPH or 25 mM NADH.
Setting [7] is: 10 °C, 10 mM NADPH or 25 mM NADH.
The mark [8] stands for this setting: 20 °C, 10 mM NADPH or 25 mM NADH.
Setting [9] is: 25 °C, 10 mM NADPH or 25 mM NADH.
[10] abbreviates: 30 °C, 10 mM NADPH or 25 mM NADH.
Where [11] appears, read: 35 °C, 10 mM NADPH or 25 mM NADH.
Setting [12] is: 40 °C, third phase, 10 mM NADPH or 25 mM NADH.
The mark [13] stands for this setting: 40 °C, 10 mM NADPH or 25 mM NADH.

Structures are written as SMILES. Like-named read-outs stand apart in the source and are kept apart here.

T1 sequence (P71278 entry or part of it): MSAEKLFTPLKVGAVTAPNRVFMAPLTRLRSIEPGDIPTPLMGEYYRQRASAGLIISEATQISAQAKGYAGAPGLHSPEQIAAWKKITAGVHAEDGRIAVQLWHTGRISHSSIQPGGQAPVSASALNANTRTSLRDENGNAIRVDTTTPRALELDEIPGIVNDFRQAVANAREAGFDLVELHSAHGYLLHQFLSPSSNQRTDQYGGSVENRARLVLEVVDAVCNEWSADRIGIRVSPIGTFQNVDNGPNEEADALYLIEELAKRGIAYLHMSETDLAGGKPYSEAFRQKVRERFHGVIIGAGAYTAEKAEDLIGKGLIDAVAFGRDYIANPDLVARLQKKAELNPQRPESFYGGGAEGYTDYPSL
Chain of L25I PETNR (P71278 entry or part of it L26I): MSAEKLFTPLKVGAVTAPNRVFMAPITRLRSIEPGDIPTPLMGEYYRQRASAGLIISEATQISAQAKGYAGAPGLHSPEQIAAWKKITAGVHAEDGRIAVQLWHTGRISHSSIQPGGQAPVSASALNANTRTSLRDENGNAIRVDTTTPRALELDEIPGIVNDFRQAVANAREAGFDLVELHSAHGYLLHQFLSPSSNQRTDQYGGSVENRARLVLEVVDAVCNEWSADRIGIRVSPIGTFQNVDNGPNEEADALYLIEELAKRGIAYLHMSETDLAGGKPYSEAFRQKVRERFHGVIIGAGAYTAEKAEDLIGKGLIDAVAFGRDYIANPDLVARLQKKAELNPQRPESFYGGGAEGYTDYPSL

As to `NC(=O)C1=CN([C@@H]2O[C@H](COP(=O)(O)OP(=O)(O)OC[C@H]3O[C@@H](n4cnc5c(N)ncnc54)[C@H](O)[C@@H]3O)[C@@H](O)[C@H]2O)CCC1` [NADH4, 1,4,5,6-tetrahydro-NAD], the Kd on PETNR was 140 µM.
For `NC(=O)C1=CN([C@@H]2O[C@H](COP(=O)(O)OP(=O)(O)OC[C@H]3O[C@@H](n4cnc5c(N)ncnc54)[C@H](OP(=O)(O)O)[C@@H]3O)[C@@H](O)[C@H]2O)C=CC1` [NADPH], the kobs1 on L25I PETNR (5 °C) was 10.12 ± 0.04 s⁻¹; at L25I PETNR (10 °C), 13.47 ± 0.06 s⁻¹; on L25I PETNR (15 °C) it was 18.07 ± 0.05 s⁻¹; at L25I PETNR (20 °C) it was 24.33 ± 0.52 s⁻¹; on L25I PETNR (25 °C), 30.24 ± 0.42 s⁻¹; on L25I PETNR (30 °C), 36.74 ± 0.28 s⁻¹. In addition, the kobs1 worked out at 49.82 ± 1.14 s⁻¹ at L25I PETNR (40 °C); 11.31 ± 0.09 s⁻¹ at WT PETNR [2] (5 °C); 15.23 ± 0.15 s⁻¹ at WT PETNR [2] (10 °C); 20.32 ± 0.25 s⁻¹ on WT PETNR [2] (15 °C); 26.28 ± 0.31 s⁻¹ on WT PETNR [2] (20 °C); 33.74 ± 0.46 s⁻¹ on WT PETNR [2] (25 °C). Also, the kobs1 on WT PETNR [2] (35 °C) was 50.46 ± 0.75 s⁻¹; on WT PETNR [2] (40 °C) it was 58.49 ± 0.50 s⁻¹; on L25A PETNR (setting [6]) it was 19.18 ± 0.22 s⁻¹; on L25A PETNR (setting [7]), 26.03 ± 0.17 s⁻¹; at L25A PETNR (15 °C, 10 mM NADPH or 25 mM NADH), 34.93 ± 1.25 s⁻¹; at L25A PETNR (setting [9]), 53.77 ± 1.15 s⁻¹. For the same compound, the kobs1 amounted to 59.63 ± 2.29 s⁻¹ at L25A PETNR (setting [10]), 68.39 ± 8.69 s⁻¹ at L25A PETNR (setting [11]) and 71.16 ± 6.56 s⁻¹ on L25A PETNR (setting [13]). Besides, the “A2 (amplitude of kobs2 out of total absorbance change)” value on L25I PETNR (20 °C) is recorded as 3.28 ± 1.62%; at L25I PETNR (35 °C) it was 5.72 ± 0.36%; at L25I PETNR (40 °C), 10.89 ± 0.63%; on WT PETNR [2] (35 °C), 1.41 ± 0.23%; on WT PETNR [2] (40 °C) it was 2.29 ± 0.35%; on L25A PETNR (setting [6]), 2.93 ± 0.55%. For the same compound, the “A2 (amplitude of kobs2 out of total absorbance change)” value stood at 2.70 ± 0.56% on L25A PETNR (setting [7]); 3.58 ± 0.47% at L25A PETNR (setting [8]); 4.73 ± 0.26% at L25A PETNR (setting [9]); 7.50 ± 0.21% at L25A PETNR (setting [10]); 16.48 ± 0.53% at L25A PETNR (setting [11]); 25.54 ± 0.91% at L25A PETNR (setting [13]). The kobs2 came out at 2.25 ± 2.63 s⁻¹ on L25I PETNR (20 °C); 2.57 ± 0.62 s⁻¹ on L25I PETNR (30 °C); 1.19 ± 0.92 s⁻¹ at WT PETNR [2] (35 °C); 1.09 ± 0.16 s⁻¹ at WT PETNR [2] (40 °C); 2.42 ± 0.48 s⁻¹ on L25A PETNR (setting [8]); 1.54 ± 0.45 s⁻¹ on L25A PETNR (setting [9]). Besides, the kobs2 at L25A PETNR (setting [11]) is 0.51 ± 0.17 s⁻¹; at L25A PETNR (setting [13]), 0.26 ± 0.06 s⁻¹. The KS at L25I PETNR (setting [3]) came to 130 ± 8 µM; at WT PETNR [2] (setting [3]), 103 ± 4 µM. In addition, the kred turned out to be 29.49 ± 0.49 s^–1 on L25I PETNR (setting [4]), 33.43 ± 0.22 s^–1 at WT PETNR [2] (setting [4]) and 55.75 ± 0.35 s^–1 at L25A PETNR (setting [4]). For the same compound, the “ΔCp^⧧” value is “–0.43 ± 0.07 kJ mol^–1 K^–1” on L25I PETNR (setting [5]), “–0.50 ± 0.05 kJ mol^–1 K^–1” on WT PETNR [2] (setting [5]) and “–0.92 ± 0.12 kJ mol^–1 K^–1” on L25A PETNR (setting [5]). Moreover, the “ΔHT0^⧧” value on L25I PETNR (setting [5]) amounted to 30.4 ± 0.6 kJ mol^–1; at WT PETNR [2] (setting [5]), 30.4 ± 0.3 kJ mol^–1; on L25A PETNR (setting [5]) it was 23.3 ± 1.2 kJ mol^–1. Besides, the “ΔST0^⧧” value on L25I PETNR (setting [5]) was “–114.9 ± 2.0 J mol^–1 K^–1”; at WT PETNR [2] (setting [5]), “–113.9 ± 0.9 J mol^–1 K^–1”; on L25A PETNR (setting [5]) it was “–133.7 ± 4.1 J mol^–1 K^–1”. For the same compound, the “ΔCp⧧” value was -0.58 ± 0.10 kJ mol-1 K-1 at WT PETNR [1] (pH 6, MTEN buffer); -0.61 ± 0.08 kJ mol-1 K-1 on WT PETNR [1] (pH 7, MTEN buffer); -0.45 ± 0.12 kJ mol-1 K-1 on WT PETNR [1] (pH 9, MTEN buffer). For the same compound, the “ΔHT0⧧” value at WT PETNR [1] (pH 6, MTEN buffer) was determined as 6.5 ± 0.14 kcal/mol; at WT PETNR [1] (pH 7, MTEN buffer), 6.6 ± 0.17 kcal/mol; at WT PETNR [1] (pH 9, MTEN buffer), 6.91 ± 0.17 kcal/mol. The “ΔST0⧧” value at WT PETNR [1] (pH 6, MTEN buffer) is -124.3 ± 2.0 J mol-1 K-1; at WT PETNR [1] (pH 7, MTEN buffer), -122.7 ± 1.6 J mol-1 K-1; at WT PETNR [1] (pH 9, MTEN buffer), -118.6 ± 2.3 J mol-1 K-1. Besides, on L25A PETNR (25 °C), the “increase in KS vs WT PETNR” value is listed as 2 fold. Moreover, the “rate of H-transfer, faster than WT PETNR” value on L25A PETNR (25 °C, kred vs WT) is 60%. In addition, the “A3 (amplitude of third phase)” value on L25A PETNR (setting [12]) stood at 19.34 ± 0.54%. The compound further registered a kobs3 on L25A PETNR (setting [12]) of 3.55 ± 1.03. In addition, the “total absorbance change attributed to kobs2” value on L25A PETNR (40 °C, sum of two slow phases (kobs2 and kobs3)) was about 40%.
As to `NC(=O)C1=CN([C@@H]2O[C@H](COP(=O)(O)OP(=O)(O)OC[C@H]3O[C@@H](n4cnc5c(N)ncnc54)[C@H](OP(=O)(O)O)[C@@H]3O)[C@@H](O)[C@H]2O)CCC1` [NADPH4], at PETNR, the Kd was 130 µM.

What is called Kd is the equilibrium constant for the complex coming apart.
